According to patent US9155795B2, “CXCR4 receptor compounds” (Anchor Therapeutics, Inc., priority 2010, dated 2015):
Where a SMILES comes first, the peptide text is derived from it. [ ]: non-standard residue; d: D form. The star is where a group is joined. 2Nal = N[C@@H](Cc1ccc2ccccc2c1)C(=O)O; Palmitoyl = CCCCCCCCCCCCCCCC(=O)*; Nle = CCCC[C@H](N)C(=O)O; Dap = NC[C@H](N)C(=O)O

Biological target: T1, CXCR4 (Homo sapiens, UniProt P61073)
T1 construct: CCRF-CEM cells, a human T-cell ALL line that endogenously expresses CXCR4; endogenous in cells; host or cells: CCRF-CEM (human T-cell acute lymphoblastic leukemia line)
Assay: Calcium flux assay, agonist mode, Flexstation (CCRF-CEM cells)
Assay type: cell-based
Conditions: CCRF-CEM, percent of maximum response compared with SDF-1α, read-out: % Intrinsic Activity
Text: Calcium Flux Assay is one of the most popular cell-based GPCR functional assays. It most often uses calcium sensing fluorescent dyes such as fura2 AM, fluo-4 and Calcium-4 to measure changes in intracellular calcium concentration. It is used mainly to detect GPCR signaling via Gαq subunit. Activation of these Gq-coupled GPCRs leads to activation of phospholipase C, which subsequently leads to increase in inositol phosphate production. IP3 receptors on endoplasmic reticulum sense the change then release calcium into cytoplasm. Intracellular calcium binding to the fluorescent dyes can be detected by instruments that quantify fluorescent intensities, such as FLIPR Tetra, Flexstation (MDS) and FDSS (Hamamatsu). In addition, to assess Gq-couple receptor signaling, a calcium flux assay can also be used to study Gs and Gi couple receptors by co-expressing CNG (cyclic nucleotide gated calcium channel) or chimeric G-proteins (Gqi5, Gsi5 for example). Activation of some Gi-coupled receptors can also be detected by calcium flux assay via Gβγ mediated phospholipase C activation.
The calcium flux assay was used to assess the test compounds' ability to activate the CXCR4 receptor in CCRF-CEM cells (human T lymphoblasts from acute lymphoblastic leukemia). […] After dye loading by incubating with Calcium-4 dye at 37° C. for 1 hour, cell plates were read at 37° C. using the using the Flexstation 3 workstation. Receptor activation was assessed by measuring changes in fluorescent intensity after the addition of the test compounds or the reference agonist SDF-1α on the using the Flexstation 3 workstation. EC50
and percent intrinsic actively were derived from the data collected. Intrinsic activity refers to the efficacy of the test compound and is calculated as the percent of maximum response compared with the response of the reference standard (i.e., natural agonist, SDF-1α).

T1 sequence (P61073 whole entry): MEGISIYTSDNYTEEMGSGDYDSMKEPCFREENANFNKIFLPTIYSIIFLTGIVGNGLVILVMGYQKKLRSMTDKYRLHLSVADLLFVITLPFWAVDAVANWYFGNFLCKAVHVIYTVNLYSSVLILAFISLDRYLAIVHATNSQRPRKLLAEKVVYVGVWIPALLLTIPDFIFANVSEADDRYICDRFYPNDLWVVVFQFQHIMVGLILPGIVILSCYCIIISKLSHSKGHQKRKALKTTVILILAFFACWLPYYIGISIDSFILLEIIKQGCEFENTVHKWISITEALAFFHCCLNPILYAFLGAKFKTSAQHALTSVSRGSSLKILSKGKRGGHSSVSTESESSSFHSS

Row | SMILES | Emax [%]
1 | CCCCCCCCCCCCCCCC(=O)N[C@@H](COC)C(=O)NCC(=O)N[C@@H](Cc1ccc(O)cc1)C(=O)N[C@@H](CCC(N)=O)C(=O)N[C@@H](CCCCN)C(=O)N[C@@H](CCCCN)C(=O)N[C@@H](CC(C)C)C(=O)N[C@@H](CCCNC(=N)N)C(=O)N[C@@H](CO)C(=O)N[C@@H](COC)C(=O)N[C@H](C(=O)N[C@@H](CC(=O)O)C(=O)N[C@@H](CCCCN)C(=O)N[C@@H](Cc1ccc(O)cc1)C(=O)N[C@@H](CCCNC(=N)N)C(=O)N[C@@H](CC(C)C)C(N)=O)[C@@H](C)O [Compound 23] (Palmitoyl-S(Me)GYQKKLRSS(Me)TDKYRL-NH2) | 87.2
2 | CCCCCCCCCCCCCCCC(=O)NCC(=O)NCC(=O)N[C@@H](Cc1ccc(O)cc1)C(=O)N[C@@H](CCC(N)=O)C(=O)N[C@@H](CCCCN)C(=O)N[C@@H](CCCCN)C(=O)N[C@@H](CC(C)C)C(=O)N[C@@H](CCCNC(=N)N)C(=O)N1CCC[C@@H]1C(=O)N[C@@H](CN)C(=O)N[C@H](C(=O)N[C@@H](CC(=O)O)C(=O)N[C@@H](CCCCN)C(=O)N[C@@H](Cc1ccc(O)cc1)C(=O)N[C@@H](CCCNC(=N)N)C(=O)N[C@@H](CC(C)C)C(N)=O)[C@@H](C)O [Compound 34] (Palmitoyl-GGYQKKLR[dP][Dap]TDKYRL-NH2; C-terminus assumed) | 103
3 | CCCCCCCCCCCCCCCC(=O)N[C@@H](CCSC)C(=O)NCC(=O)N[C@@H](Cc1ccc(O)cc1)C(=O)N[C@@H](CCC(N)=O)C(=O)N[C@@H](CCCCN)C(=O)N[C@@H](CCCCN)C(=O)N[C@@H](CC(C)C)C(=O)N[C@@H](CCCNC(=N)N)C(=O)N[C@@H](CO)C(=O)N[C@@H](CCSC)C(=O)N[C@H](C(=O)N[C@@H](CC(=O)O)C(=O)N[C@@H](CCCCN)C(=O)N[C@@H](Cc1ccc2ccccc2c1)C(=O)N[C@@H](CCCNC(=N)N)C(=O)N[C@@H](CC(C)C)C(N)=O)[C@@H](C)O [Compound 16] (Palmitoyl-MGYQKKLRSMTDK[2Nal]RL-NH2; C-terminus assumed) | 34.4
4 | CCCCCCCCCCCCCCCC(=O)NCC(=O)NCC(=O)N[C@@H](Cc1ccc(O)cc1)C(=O)N[C@@H](CCC(N)=O)C(=O)N[C@@H](CCCCN)C(=O)N[C@@H](CCCCN)C(=O)N1CCC[C@@H]1C(=O)N[C@@H](CCCNC(=N)N)C(=O)N1CCC[C@@H]1C(=O)N[C@@H](C)C(=O)N[C@H](C(=O)N[C@@H](CC(=O)O)C(=O)N[C@@H](CCCCN)C(=O)N[C@@H](Cc1ccc(O)cc1)C(=O)N[C@@H](CCCNC(=N)N)C(=O)N[C@@H](CC(C)C)C(N)=O)[C@@H](C)O [Compound 28] (Palmitoyl-GGYQKK[dP]R[dP]ATDKYRL-NH2; C-terminus assumed) | 107
5 | CCCCCCCCCCCCCCCC(=O)NCC(=O)NCC(=O)N[C@@H](Cc1ccc(O)cc1)C(=O)N[C@@H](CCC(N)=O)C(=O)N[C@@H](CCCCN)C(=O)N[C@@H](CCCCN)C(=O)N[C@@H](CC(C)C)C(=O)N[C@@H](CCCNC(=N)N)C(=O)N1CCC[C@@H]1C(=O)N[C@@H](C)C(=O)N[C@H](C(=O)N[C@@H](CC(=O)O)C(=O)N[C@@H](CCCCN)C(=O)N[C@@H](Cc1ccc(O)cc1)C(=O)N[C@@H](CCCNC(=N)N)C(=O)N[C@@H](CC(C)C)C(N)=O)[C@@H](C)O [Compound 27] (Palmitoyl-GGYQKKLR[dP]ATDKYRL-NH2; C-terminus assumed) | 111
6 | CCCCCCCCCCCCCCCC(=O)N[C@@H](CCSC)C(=O)NCC(=O)N[C@@H](Cc1ccc(O)cc1)C(=O)N[C@@H](CCC(N)=O)C(=O)N[C@@H](CCCCN)C(=O)N[C@@H](CCCCN)C(=O)N[C@@H](CC(C)C)C(=O)N[C@@H](CCCNC(=N)N)C(=O)N1CCC[C@H]1C(=O)N[C@@H](CO)C(=O)N[C@@H](CCSC)C(=O)N[C@H](C(=O)N[C@@H](CC(=O)O)C(=O)N[C@@H](CCCCN)C(=O)N[C@@H](Cc1ccc(O)cc1)C(=O)N[C@@H](CCCNC(=N)N)C(=O)N[C@@H](CC(C)C)C(N)=O)[C@@H](C)O [Compound 8] (Palmitoyl-MGYQKKLRPSMTDKYRL-NH2; C-terminus assumed) | 88
7 | CCCCCCCCCCCCCCCC(=O)N[C@@H](CCSC)C(=O)NCC(=O)N[C@@H](Cc1ccc(O)cc1)C(=O)N[C@@H](CCC(N)=O)C(=O)N[C@@H](CCCCN)C(=O)N[C@@H](CCCCN)C(=O)N[C@@H](CC(C)C)C(=O)N[C@@H](CCCNC(=N)N)C(=O)N[C@@H](CO)C(=O)N[C@@H](CCSC)C(=O)N[C@H](C(=O)N[C@@H](CC(=O)O)C(=O)N[C@@H](CCCCN)C(=O)N[C@@H](Cc1ccc(O)cc1)C(=O)N[C@@H](CCCCN)C(=O)N[C@@H](CC(C)C)C(N)=O)[C@@H](C)O [Compound 13] (Palmitoyl-MGYQKKLRSMTDKYKL-NH2; C-terminus assumed) | 61.4
8 | CCCCCCCCCCCCCCCC(=O)N[C@@H](CCSC)C(=O)NCC(=O)N[C@@H](Cc1ccc(O)cc1)C(=O)N[C@@H](CCC(N)=O)C(=O)N[C@@H](CCCCN)C(=O)N[C@@H](CCCCN)C(=O)N[C@@H](CC(C)C)C(=O)N1CCC[C@H]1C(=O)N[C@@H](CCCNC(=N)N)C(=O)N[C@@H](CO)C(=O)N[C@@H](CCSC)C(=O)N[C@H](C(=O)N[C@@H](CC(=O)O)C(=O)N[C@@H](CCCCN)C(=O)N[C@@H](Cc1ccc(O)cc1)C(=O)N[C@@H](CCCNC(=N)N)C(=O)N[C@@H](CC(C)C)C(N)=O)[C@@H](C)O [Compound 7] (Palmitoyl-MGYQKKLPRSMTDKYRL-NH2; C-terminus assumed) | 100
9 | CCCCCCCCCCCCCCCC(=O)N[C@@H](CCSC)C(=O)NCC(=O)N[C@@H](Cc1ccc(O)cc1)C(=O)N[C@@H](CCC(N)=O)C(=O)N[C@@H](CCCCN)C(=O)N[C@@H](CCCCN)C(=O)N[C@@H](CC(C)C)C(=O)N[C@@H](CCCNC(=N)N)C(=O)N[C@@H](CO)C(=O)N[C@@H](CCSC)C(=O)N[C@H](C(=O)N[C@@H](CC(=O)O)C(=O)N[C@@H](CCCCN)C(=O)N[C@@H](Cc1ccccc1)C(=O)N[C@@H](CCCNC(=N)N)C(=O)N[C@@H](CC(C)C)C(N)=O)[C@@H](C)O [Compound 15] (Palmitoyl-MGYQKKLRSMTDKFRL-NH2; C-terminus assumed) | 81.5
10 | CCCCCCCCCCCCCCCC(=O)N[C@@H](CCSC)C(=O)NCC(=O)N[C@@H](Cc1ccc(O)cc1)C(=O)N[C@@H](CCC(N)=O)C(=O)N[C@@H](CCCCN)C(=O)N[C@@H](CCCCN)C(=O)N[C@@H](CC(C)C)C(=O)N[C@@H](CCCNC(=N)N)C(=O)N[C@@H](CO)C(=O)N[C@@H](Cc1c[nH]cn1)C(=O)N[C@H](C(=O)N[C@@H](CC(=O)O)C(=O)N[C@@H](CCCCN)C(=O)N[C@@H](Cc1ccc(O)cc1)C(=O)N[C@@H](CCCNC(=N)N)C(=O)N[C@@H](CC(C)C)C(N)=O)[C@@H](C)O [Compound 18] (Palmitoyl-MGYQKKLRSHTDKYRL-NH2; C-terminus assumed) | 93.4
11 | CCCCCCCCCCCCCCCC(=O)N[C@@H](CCSC)C(=O)NCC(=O)N[C@@H](Cc1ccc(O)cc1)C(=O)N[C@@H](CCC(N)=O)C(=O)N[C@@H](CCCCN)C(=O)N[C@@H](CCCCN)C(=O)N[C@@H](CC(C)C)C(=O)N[C@@H](CCCNC(=N)N)C(=O)N[C@@H](CO)C(=O)N[C@@H](CCSC)C(=O)N[C@H](C(=O)N[C@@H](CC(=O)O)C(=O)N[C@@H](CCCCN)C(=O)N[C@@H](Cc1ccc(O)cc1)C(=O)N[C@@H](CCCNC(=N)N)C(=O)N[C@H](C(N)=O)C(C)C)[C@@H](C)O [Compound 11] (Palmitoyl-MGYQKKLRSMTDKYRV-NH2; C-terminus assumed) | 61.7
12 | CCCCCCCCCCCCCCCC(=O)NCC(=O)NCC(=O)N[C@@H](Cc1ccc(O)cc1)C(=O)N[C@@H](CCC(N)=O)C(=O)N[C@@H](CCCCN)C(=O)N[C@@H](CCCCN)C(=O)N[C@@H](CC(C)C)C(=O)N[C@@H](CCCNC(=N)N)C(=O)N1CCC[C@@H]1C(=O)N1CCC[C@@H]1C(=O)N[C@@H](Cc1c[nH]cn1)C(=O)N[C@H](C(=O)N[C@@H](CC(=O)O)C(=O)N[C@@H](CCCCN)C(=O)N[C@@H](Cc1ccc(O)cc1)C(=O)N[C@@H](CCCNC(=N)N)C(=O)N[C@@H](CC(C)C)C(N)=O)[C@@H](C)O [Compound 32] (Palmitoyl-GGYQKKLR[dP][dP]HTDKYRL-NH2; C-terminus assumed) | 91.1
13 | CCCCCCCCCCCCCCCC(=O)NCC(=O)N[C@@H](Cc1ccc(O)cc1)C(=O)N[C@@H](CCC(N)=O)C(=O)N[C@@H](CCCCN)C(=O)N[C@@H](CCCCN)C(=O)N[C@@H](CC(C)C)C(=O)N[C@@H](CCCNC(=N)N)C(=O)N[C@@H](CO)C(=O)N[C@@H](CCCC)C(=O)N[C@H](C(=O)N[C@@H](CC(=O)O)C(=O)N[C@@H](CCCCN)C(=O)N[C@@H](Cc1ccc(O)cc1)C(=O)N[C@@H](CCCNC(=N)N)C(=O)N[C@H](C(N)=O)[C@@H](C)CC)[C@@H](C)O [Compound 20] (Palmitoyl-GYQKKLRS[Nle]TDKYRI-NH2; C-terminus assumed) | 62.5
14 | CCCCCCCCCCCCCCCC(=O)NCC(=O)NCC(=O)N[C@@H](Cc1ccc(O)cc1)C(=O)N[C@@H](CCC(N)=O)C(=O)N[C@@H](CCCCN)C(=O)N[C@@H](CCCCN)C(=O)N[C@@H](CC(C)C)C(=O)N[C@@H](CCCNC(=N)N)C(=O)N[C@@H](CO)C(=O)N[C@@H](C)C(=O)N[C@H](C(=O)N[C@@H](CC(=O)O)C(=O)N[C@@H](CCCCN)C(=O)N[C@@H](Cc1ccc(O)cc1)C(=O)N[C@@H](CCCNC(=N)N)C(=O)N[C@@H](CC(C)C)C(=O)N[C@@H](Cc1c[nH]cn1)C(N)=O)[C@@H](C)O [Compound 40] (Palmitoyl-GGYQKKLRSATDKYRLH-NH2; C-terminus assumed) | 78.7
